According to patent publication US20110112308A1 (NOVARTIS AG, priority 2006, published 2011):

Legend:
Format in all cases: physicochemical
[1] = Approximate solubility in water and at pH 1 (supplemental testing); details: for Form by XRPD of solid residue, Water: after equilibration in water > 20 hours
Protocol: (§1) An approximate solubility of the below-listed salts was determined in water and at pH 1 by suspending 5-15 mg of the salt in 1 mL of solvent. The samples were allowed to equilibrate at ambient temperature for at least 20 hours. The supernatant was filtered and used for the solubility determination, which was done gravimetrically, for the aqueous solubility, and by UV-VIS spectroscopy for pH 1. The solid residue was analyzed by XRPD. […] They were subsequently analyzed by XRPD and TGA, if the latter deemed necessary. Only irreversible or slowly reversible events can be detected.

[2] = Solid samples held at 93% r.h. (XRPD, TGA); details: 93% r.h., 10 days
Protocol: as §1

[3] = pH of saturated solution or 1% suspension in water; details: In pH = 6.8 buffer
[4] = pH of saturated solution or 1% suspension in water; details: room temperature
Protocol: pH Value: The pH at room temperature of a saturated solution or 1% suspension of the drug substance in water was recorded.

[5] = Intrinsic dissolution rate, rotation disk method; details: for Intrinsic Dissolution Rate: 37° C., 200 r.p.m.
Protocol: Intrinsic Dissolution: […] […] Pellets of the other salts remained intact for at least several minutes enabling the determination of the intrinsic dissolution rate. Dissolution rate studies were performed using the rotation disk method ([…] Instrument). A single rotation speed of 200 r.p.m. was used to dissolve drug substance into a 500 mL vessel at 37° C. The solution was continuously pumped through a UV cell measurement and returned to the dissolution vessel.

[6] = Stability of mixtures with excipients; details: for stability with all excipient mixtures tested, in words: after 2 weeks at 50° C./75% r.h.
Protocol: (§2) All samples were prepared/diluted to a concentration of 0.2 mg/mL in methanol prior to analysis by HPLC. A freshly prepared sample of each salt was used as the reference standard for external standard calibration analysis.

Solid-state stability = details: for Bulk stability (XRPD): 1 week
Protocol: as §2

[7] = Solution stability (HPLC); details: for stability characteristics, in words: both in solution and in the solid state; for Unstressed (% Area): unstressed baseline of the stability study
Protocol: as §2

[8] = Solubility, 24-hour equilibration at room temperature; details: for Solubility: approx. at 25° C.
Protocol: Aqueous Solubility: A carefully weighted amount (20-50 mg) of sample is dissolved in 1 ml of solvent with 24-hour equilibration at room temperature. The solubility was determined either gravimetrically or by UV-VIS spectrometry. The pH of the clear solution was also measured. However, the difficulty of determining salt solubilities in water should be stressed, since upon dissolution dissociation to the free form is possible, which affects both the solubility and the pH. It's not unlikely that attempts to make solutions of a salt at a concentration well below the reported solubility of the salt to be unsuccessful (for a full discussion see: M. Pudipeddi, A. T. M. Serajuddin, D. J. W. Grant, and P. H. Stahl in “Handbook of Pharmaceutical Salts Properties Selection and Use” page 27 and references therein).

[9] = Water, free base pellet disintegrated, not true intrinsic rate
[10] = Mixture 1: 50% PVP + 50% Crospovidone, 50° C./75% r.h., 2 weeks
[11] = Mixture 2: 50% Starch 1500 + 5% MCC 102, 50° C./75% r.h., 2 weeks
[12] = Mixture 3: 5% PVP + 5% Crospovidone + 10% Starch 1500 + 80% MCC 102, 50° C./75% r.h., 2 weeks
[13] = Mixture 4: 99% Lactose + 1% BHT/BHA, 50° C./75% r.h., 2 weeks
[14] = Mixture 5: 99% Mannitol + 1% BHT/BHA, 50° C./75% r.h., 2 weeks
[15] = Mixture 6: 50% Mannitol + 47% HPCLH21 + 1% BHT/BHA + 2% Magnesium Stearate, 50° C./75% r.h., 2 weeks
[16] = Mixture 7: 50% Cetyl Alcohol + 49% HPCLH21 + 1% Magnesium Stearate, 50° C./75% r.h., 2 weeks
[17] = Mixture 8: 100% PEG 3350, 50° C./75% r.h., 2 weeks
[18] = Bulk stability, 2 weeks, 50° C.
[19] = Bulk stability, 2 weeks, 50° C./20% water
[20] = Bulk stability, 2 weeks, 50° C./75% r.h.
[21] = Light study, 1200 kLux (300-800 nm)
[22] = 2 mg/mL in 100 mM lactate buffer, pH 3.5
[23] = 2 mg/mL in methanol, 1 week at 50° C.
[24] = 2 mg/mL in water, 1 week at 50° C.
[25] = 2 mg/mL, 100 mM lactate buffer pH 3.5, 1 week at 50° C.
[26] = 2 mg/mL, 100 mM lactate buffer pH 3.5, 1 week at 50° C., external standard
[27] = 2% in 0.5% HPMC 4000, 1 day at RT
[28] = 2% in 0.5% Klucel HF, 1 day at RT
[29] = 2% in 0.8% Tween 80, 1 day at RT
[30] = 5% solution, 1 day at RT (diluted 1:100 in pH 6.8 buffer)

Compound: 2:1 malate (hemi-malate) salt of N-hydroxy-3-[4-[[[2-(2-methyl-1H-indol-3-yl) ethyl]amino]methyl]phenyl]-2E-2-propenamide
- approximate aqueous solubility [1]: ~1400 µg/mL
- S (approximate solubility), pH 1 ([1]; EQ t > 20 hours, ambient temperature, UV-VIS): 0.42 mg/mL
- S (approximate solubility), Water ([1]; EQ t > 20 hours, ambient temperature, gravimetric): 1380 µg/mL
- Form by XRPD of solid residue, Water [1]: No change
- Form by XRPD of solid residue, Water ([1]; listed as malate): No structural change
- Solid State (EQ 93% r.h.) Form by XRPD [2]: No change

Compound: 2:1 L-tartarate salt of N-hydroxy-3-[4-[[[2-(2-methyl-1H-indol-3-yl)ethyl]amino]methyl]phenyl]-2E-2-propenamide
- pH of saturated solution [3]: 5.57
- pH of saturated solution [4]: 6.07
- intrinsic dissolution (rate), in words [5]: good
- Intrinsic Dissolution Rate ([5]; HCl 0.1N): 1.16 mg min^−1 cm^−2
- Intrinsic Dissolution Rate [5, 9]: 0.38 mg min^−1 cm^−2
- % DP (total degradation products) [6, 10]: 1.2 % area
- % DS (drug substance) [6, 10]: 98.8 % area
- % DP (total degradation products) [6, 11]: 1.3 % area
- % DS (drug substance) [6, 11]: 98.7 % area
- % DP (total degradation products) [6, 12]: 1.3 % area
- % DS (drug substance) [6, 12]: 98.7 % area
- % DP (total degradation products) [6, 13]: 1.3 % area
- % DS (drug substance) [6, 13]: 98.7 % area
- % DP (total degradation products) [6, 14]: 1.3 % area
- % DS (drug substance) [6, 14]: 98.7 % area
- % DP (total degradation products) [6, 15]: 1.3 % area
- % DS (drug substance) [6, 15]: 98.7 % area
- % DP (total degradation products) [6, 16]: 1.3 % area
- % DS (drug substance) [6, 16]: 98.7 % area
- % DP (total degradation products) [6, 17]: 1.3 % area
- % DS (drug substance) [6, 17]: 98.7 % area
- % DP (total degradation products) ([6]; Standard, freshly prepared): 0.6 % area
- % DS (drug substance) ([6]; Standard, freshly prepared): 99.4 % area
- stability with all excipient mixtures tested, in words [6]: very good stability
- Bulk stability (XRPD) (Solid-state stability; 80° C.): no change
- Bulk stability (XRPD) (Solid-state stability; 80° C./75% r.h.): no change
- % DP (total degradation products) (Solid-state stability; [18]): 0.84 % area
- assay (Solid-state stability; [18]): [99.48]
- % DP (total degradation products) (Solid-state stability; [19]): 1.61 % area
- assay (Solid-state stability; [19]): [97.07]
- % DP (total degradation products) (Solid-state stability; [20]): 1.36 % area
- assay (Solid-state stability; [20]): [97.66]
- % DP (total degradation products) (Solid-state stability; [21]): 0.82 % area
- assay (Solid-state stability; [21]): [100.4]
- pH of initial mixture [7, 22]: 3.58
- % DP (total degradation products) [7, 23]: 0.86 % area
- CL (appearance) [7, 23]: A↓
- assay [7, 23]: [100.5]
- pH of initial mixture ([7]; 2 mg/mL in water): 6.82
- % DP (total degradation products) [7, 24]: 1.21 % area
- CL (appearance) [7, 24]: A↓
- assay [7, 24]: [98.91]
- % DP (total degradation products) [7, 25]: 1.53 % area
- CL (appearance) [7, 25]: A↓*
- assay [7, 26]: [96.89]
- % DP (total degradation products) ([7]; 2% in 0.5% CMC, 1 day at RT): 0.62 % area
- CL (appearance) ([7]; 2% in 0.5% CMC, 1 day at RT): A↓↓
- assay ([7]; 2% in 0.5% CMC, 1 day at RT): [79.98]
- % DP (total degradation products) [7, 27]: 0.54 % area
- assay [7, 27]: [97.54]
- % DP (total degradation products) [7, 28]: 0.58 % area
- assay [7, 28]: [96.39]
- % DP (total degradation products) [7, 29]: 0.54 % area
- assay [7, 29]: [96.60]
- % DP (total degradation products) [7, 30]: 0.71 % area
- CL (appearance) [7, 30]: A↓
- assay [7, 30]: [98.39]
- stability characteristics, in words [7]: very good stability
- Unstressed (% Area) [7]: 99.62% Area

Compound: Cc1[nH]c2ccccc2c1CCNCc1ccc(/C=C/C(=O)NO)cc1.O=C(O)/C=C\C(=O)O [Maleate, 1:1 maleate salt of N-hydroxy-3-[4-[[[2-(2-methyl-1H-indol-3-yl)ethyl]amino]methyl]phenyl]-2E-2-propenamide]
- pH of saturated solution [3]: 5.70
- pH of saturated solution [4]: 5.54
- intrinsic dissolution (rate), in words [5]: good
- Intrinsic Dissolution Rate ([5]; HCl 0.1N): 1.00 mg min^−1 cm^−2
- Intrinsic Dissolution Rate [5, 9]: 0.32 mg min^−1 cm^−2
- aqueous solubility [8]: 2600 µg/mL
- solubility in methanol and ethanol, in words [8]: high
- solubility in other common / remaining organic solvents, in words [8]: considerable
- Solubility ([8]; 0.1N HCl): 700 µg/mL
- Solubility ([8]; 2-Propanol): 1600 µg/mL
- Solubility ([8]; Acetone): 3000 µg/mL
- Solubility ([8]; Ethanol): 7200 µg/mL
- Solubility ([8]; Ethyl acetate): 5600 µg/mL
- Solubility ([8]; Methanol): 57000 µg/mL
- Solubility ([8]; Propylene glycol): 32400 µg/mL
- Solubility ([8]; Water): 2600 µg/mL
- approximate solubility in water as % ([8]; estimated from mg/mL assuming solution density 1 g/mL): approximately 0.3%
- Solubility ([8]; pH = 6.8 buffer): 1500 µg/mL
- % DP (total degradation products) [6, 10]: 0.5 % area
- % DS (drug substance) [6, 10]: 99.5 % area
- % DP (total degradation products) [6, 11]: 0.3 % area
- % DS (drug substance) [6, 11]: 99.7 % area
- % DP (total degradation products) [6, 12]: 0.3 % area
- % DS (drug substance) [6, 12]: 99.7 % area
- % DP (total degradation products) [6, 13]: 0.3 % area
- % DS (drug substance) [6, 13]: 99.7 % area
- % DP (total degradation products) [6, 14]: 0.3 % area
- % DS (drug substance) [6, 14]: 99.7 % area
- % DP (total degradation products) [6, 15]: 0.3 % area
- % DS (drug substance) [6, 15]: 99.7 % area
- % DP (total degradation products) [6, 16]: 0.3 % area
- % DS (drug substance) [6, 16]: 99.7 % area
- % DP (total degradation products) [6, 17]: 0.4 % area
- % DS (drug substance) [6, 17]: 99.6 % area
- % DP (total degradation products) ([6]; Standard, freshly prepared): 0.2 % area
- % DS (drug substance) ([6]; Standard, freshly prepared): 99.8 % area
- stability with all excipient mixtures tested, in words [6]: very good stability
- Bulk stability (XRPD) (Solid-state stability; 80° C.): no change
- Bulk stability (XRPD) (Solid-state stability; 80° C./75% r.h.): no change
- % DP (total degradation products) (Solid-state stability; [18]): 0.71 % area
- assay (Solid-state stability; [18]): [102.2]
- % DP (total degradation products) (Solid-state stability; [19]): 0.71 % area
- assay (Solid-state stability; [19]): [101.1]
- % DP (total degradation products) (Solid-state stability; [20]): 0.58 % area
- assay (Solid-state stability; [20]): [100.0]
- % DP (total degradation products) (Solid-state stability; [21]): 3.02 % area
- CL (appearance) (Solid-state stability; [21]): D (D = strong discoloration)
- assay (Solid-state stability; [21]): [96.72]
- pH of initial mixture [7, 22]: 3.51
- % DP (total degradation products) [7, 23]: 0.83 % area
- assay [7, 23]: [100.7]
- pH of initial mixture ([7]; 2 mg/mL in water): 5.40
- % DP (total degradation products) [7, 24]: 0.80 % area
- CL (appearance) [7, 24]: A↓
- assay [7, 24]: [97.26]
- % DP (total degradation products) [7, 25]: 1.59 % area
- CL (appearance) [7, 25]: A↓*
- assay [7, 26]: [97.48]
- % DP (total degradation products) ([7]; 2% in 0.5% CMC, 1 day at RT): 0.58 % area
- CL (appearance) ([7]; 2% in 0.5% CMC, 1 day at RT): A↓↓
- assay ([7]; 2% in 0.5% CMC, 1 day at RT): [77.42]
- % DP (total degradation products) [7, 27]: 0.60 % area
- assay [7, 27]: [94.63]
- % DP (total degradation products) [7, 28]: 0.55 % area
- assay [7, 28]: [96.78]
- % DP (total degradation products) [7, 29]: 0.66 % area
- assay [7, 29]: [96.83]
- % DP (total degradation products) [7, 30]: 0.67 % area
- CL (appearance) [7, 30]: A↓
- assay [7, 30]: [97.92]
- stability characteristics, in words [7]: very good stability
- Unstressed (% Area) [7]: 99.48% Area
